Patent publication US12077503B2, “Substituted cyclic amides and their use as herbicides” (FMC CORPORATION, priority 2015, dated 2024)

Columns and labels:
Format in all cases: in vivo
[1] = system: ducksalad (Heteranthera limosa); assay: Test B flooded paddy test; details: Flood, 250 g ai/ha; 0 to 100 scale where 0 is no effect and 100 is complete control; 13 to 15 d
Summary of the method: (§1)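 Response scored visually against untreated controls, 0 = no effect and 100 = complete control, 13–15 d after treatment in the greenhouse. Compounds added to paddy water held 3 cm above soil surface. Treatment given at 2-leaf stage.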

rice (Oryra sativa) = assay: Test B flooded paddy test; details: Flood, 250 g ai/ha; 0 to 100 scale where 0 is no effect and 100 is complete control; 13 to 15 d
Summary of the method: as §1

[2] = system: barnyardgrass (Echinochloa crus-galli); assay: Test B flooded paddy test; details: Flood, 250 g ai/ha; 0 to 100 scale where 0 is no effect and 100 is complete control; 13 to 15 d
Summary of the method: as §1

[3] = system: sedge, umbrella (small-flower umbrella sedge, Cyperus difformis); assay: Test B flooded paddy test; details: Flood, 250 g ai/ha; 0 to 100 scale where 0 is no effect and 100 is complete control; 13 to 15 d
Summary of the method: as §1

[4] = system: wheat (Triticum aestivum); assay: Test A postemergence
Summary of the method: (§2)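 Each rating is a visual injury score from 0 to 100 given about 10 d after treatment, judged against untreated controls kept alongside in the greenhouse. In loam soil–sand blend, seeds got a preemergence directed soil spray, while postemergence plants were 2 to 10 cm tall at spraying.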

corn (Zea mays) = assay: Test A postemergence
Summary of the method: as §2

[5] = system: ryegrass, Italian (Italian ryegrass, Lolium multiflorum); assay: Test A postemergence
Summary of the method: as §2

[6] = system: giant foxtail (Setaria faberii); assay: Test A postemergence
Summary of the method: as §2

[7] = system: ragweed (common ragweed, Ambrosia elatior); assay: Test A postemergence
Summary of the method: as §2

[8] = system: barnyardgrass (Echinochloa crus-galli); assay: Test A postemergence
Summary of the method: as §2

[9] = system: blackgrass (Alopecurus myosuroides); assay: Test A postemergence
Summary of the method: as §2

[10] = system: Galium (catchweed bedstraw, Galium aparine); assay: Test A postemergence
Summary of the method: as §2

[11] = system: pigweed (Amaranthus retroflexus); assay: Test A postemergence
Summary of the method: as §2

Kochia (Kochia scoparia) [12] = assay: Test A postemergence
Summary of the method: as §2

[13] = system: ryegrass, Italian (Italian ryegrass, Lolium multiflorum); assay: Test A preemergence; details: Preemergence; for Plant response rating, Ryegrass, Italian: 125 g ai/ha, visual injury after approximately 10 d, 0 to 100 scale where 0 is no effect and 100 is complete control; for Ryegrass, Italian plant response rating (0 to 100 scale, 0 is no effect, 100 is complete control): 500 g ai/ha, visual injury approx. 10 d
Summary of the method: as §2

[14] = system: giant foxtail (Setaria faberii); assay: Test A preemergence; details: Preemergence; for Plant response rating, Foxtail, Giant: 125 g ai/ha, visual injury after approximately 10 d, 0 to 100 scale where 0 is no effect and 100 is complete control; for Foxtail, Giant plant response rating (0 to 100 scale, 0 is no effect, 100 is complete control): 500 g ai/ha, visual injury approx. 10 d
Summary of the method: as §2

[15] = system: ragweed (common ragweed, Ambrosia elatior); assay: Test A preemergence; details: Preemergence; for Plant response rating, Ragweed: 125 g ai/ha, visual injury after approximately 10 d, 0 to 100 scale where 0 is no effect and 100 is complete control; for Ragweed plant response rating (0 to 100 scale, 0 is no effect, 100 is complete control): 500 g ai/ha, visual injury approx. 10 d
Summary of the method: as §2

[16] = system: barnyardgrass (Echinochloa crus-galli); assay: Test A preemergence; details: Preemergence; for Plant response rating, Barnyardgrass: 125 g ai/ha, visual injury after approximately 10 d, 0 to 100 scale where 0 is no effect and 100 is complete control; for Barnyardgrass plant response rating (0 to 100 scale, 0 is no effect, 100 is complete control): 500 g ai/ha, visual injury approx. 10 d
Summary of the method: as §2

[17] = system: pigweed (Amaranthus retroflexus); assay: Test A preemergence; details: Preemergence; for Plant response rating, Pigweed: 125 g ai/ha, visual injury after approximately 10 d, 0 to 100 scale where 0 is no effect and 100 is complete control; for Pigweed plant response rating (0 to 100 scale, 0 is no effect, 100 is complete control): 500 g ai/ha, visual injury approx. 10 d
Kochia (Kochia scoparia) [18] = assay: Test A preemergence; details: Preemergence; for Plant response rating, Kochia: 125 g ai/ha, visual injury after approximately 10 d, 0 to 100 scale where 0 is no effect and 100 is complete control; for Kochia plant response rating (0 to 100 scale, 0 is no effect, 100 is complete control): 500 g ai/ha, visual injury approx. 10 d
Summary of the method: as §2

[19] = 125 g ai/ha, postemergence, visual injury rating on 0 to 100 scale (0 no effect, 100 complete control), approx. 10 d
[20] = Postemergence, 500 g ai/ha, 0 to 100 scale where 0 is no effect and 100 is complete control
[21] = 125 g ai/ha, postemergence, visual rating after approx. 10 d, 0 to 100 scale (0 no effect, 100 complete control)

| Structure (SMILES) | Plant response rating, Ducksalad [1] | Plant response rating, Rice (rice (Oryra sativa)) | Plant response rating, Barnyardgrass [2] | Plant response rating, Sedge, Umbrella [3] | Plant response rating, Wheat [4, 20] | Plant response rating, Corn (corn (Zea mays); [20]) | Plant response rating, Ryegrass, Italian [5, 20] | Plant response rating, Foxtail, Giant [6, 20] | Plant response rating, Ragweed [7, 20] | Plant response rating, Barnyardgrass [8, 20] | Plant response rating, Blackgrass [9, 20] | Plant response rating, Galium [10, 20] | Plant response rating, Pigweed [11, 20] | Plant response rating, Kochia (Kochia (Kochia scoparia) [12]; [20]) | Plant response rating, Ryegrass, Italian [13] | Ryegrass, Italian plant response rating (0 to 100 scale, 0 is no effect, 100 is complete control) [13] | Plant response rating, Foxtail, Giant [14] | Foxtail, Giant plant response rating (0 to 100 scale, 0 is no effect, 100 is complete control) [14] | Plant response rating, Ragweed [15] | Ragweed plant response rating (0 to 100 scale, 0 is no effect, 100 is complete control) [15] | further results |
| --- | --- | --- | --- | --- | --- | --- | --- | --- | --- | --- | --- | --- | --- | --- | --- | --- | --- | --- | --- | --- | --- |
| COCc1cccc(C2CNC(=O)C2C(=O)Nc2ccccc2Cl)c1 (stereo not drawn) [Compound 498] | 90 | 0 | 45 | 0 | 0 | 0 | 0 | 40 | 0 | 70 | 0 | 0 | 0 | 0 | 0 | 0 | 40 | 80 | 0 | 0 | Wheat plant response rating [4, 19]: 0; Corn plant response rating (corn (Zea mays); [19]): 0; Ryegrass, Italian plant response rating [5, 19]: 0; Foxtail, Giant plant response rating [6, 19]: 20; Ragweed plant response rating [7, 19]: 0; Barnyardgrass plant response rating [8, 19]: 30; Blackgrass plant response rating [9, 19]: 0; Galium plant response rating [10, 19]: 0; Pigweed plant response rating [11, 19]: 0; Kochia plant response rating (Kochia (Kochia scoparia) [12]; [19]): 0; Plant response rating, Barnyardgrass [16]: 30; Barnyardgrass plant response rating (0 to 100 scale, 0 is no effect, 100 is complete control) [16]: 90; Plant response rating, Pigweed [17]: 0; Pigweed plant response rating (0 to 100 scale, 0 is no effect, 100 is complete control) [17]: 0; Plant response rating, Kochia (Kochia (Kochia scoparia) [18]): 0; Kochia plant response rating (0 to 100 scale, 0 is no effect, 100 is complete control) (Kochia (Kochia scoparia) [18]): 0 |
| CN1CC(c2c(F)cccc2F)C(C(=O)Nc2cccc(F)c2F)C1=O (stereo not drawn) [Compound 547] | 0 | 0 | 0 | 0 | 0 | 0 | 0 | 90 | 30 | 90 | 0 | 20 | 0 | 50 | 0 | 0 | 90 | 90 | 0 | 70 | Plant response rating, Wheat [4, 21]: 0; Plant response rating, Corn (corn (Zea mays); [21]): 0; Plant response rating, Ryegrass, Italian [5, 21]: 0; Plant response rating, Foxtail, Giant [6, 21]: 80; Plant response rating, Ragweed [7, 21]: 0; Plant response rating, Barnyardgrass [8, 21]: 70; Plant response rating, Blackgrass [9, 21]: 0; Plant response rating, Galium [10, 21]: 0; Plant response rating, Pigweed [11, 21]: 0; Plant response rating, Kochia (Kochia (Kochia scoparia) [12]; [21]): 0; Plant response rating, Barnyardgrass [16]: 90; Barnyardgrass plant response rating (0 to 100 scale, 0 is no effect, 100 is complete control) [16]: 90; Plant response rating, Pigweed [17]: 0; Pigweed plant response rating (0 to 100 scale, 0 is no effect, 100 is complete control) [17]: 0; Plant response rating, Kochia (Kochia (Kochia scoparia) [18]): 0; Kochia plant response rating (0 to 100 scale, 0 is no effect, 100 is complete control) (Kochia (Kochia scoparia) [18]): 0 |
| CC(C)Oc1cccc(C2CNC(=O)C2C(=O)Nc2ccccc2F)c1 (stereo not drawn) [Compound 552] | 100 | 10 | 60 | 0 | 40 | 50 | 50 | 80 | 20 | 90 | 70 | 60 | 0 | 30 | 20 | 40 | 90 | 90 | 0 | 60 | Plant response rating, Wheat [4, 21]: 0; Plant response rating, Corn (corn (Zea mays); [21]): 20; Plant response rating, Ryegrass, Italian [5, 21]: 30; Plant response rating, Foxtail, Giant [6, 21]: 70; Plant response rating, Ragweed [7, 21]: 0; Plant response rating, Barnyardgrass [8, 21]: 80; Plant response rating, Blackgrass [9, 21]: 30; Plant response rating, Galium [10, 21]: 40; Plant response rating, Pigweed [11, 21]: 0; Plant response rating, Kochia (Kochia (Kochia scoparia) [12]; [21]): 0; Plant response rating, Barnyardgrass [16]: 90; Barnyardgrass plant response rating (0 to 100 scale, 0 is no effect, 100 is complete control) [16]: 90; Plant response rating, Pigweed [17]: 0; Pigweed plant response rating (0 to 100 scale, 0 is no effect, 100 is complete control) [17]: 0; Plant response rating, Kochia (Kochia (Kochia scoparia) [18]): 0; Kochia plant response rating (0 to 100 scale, 0 is no effect, 100 is complete control) (Kochia (Kochia scoparia) [18]): 70 |
| O=C1NCC(c2cc(C(F)(F)F)ccc2F)C1C(=O)Nc1cccc(F)c1F (stereo not drawn) [Compound 594] | 90 | 35 | 70 | 0 | 70 | 70 | 30 | 90 | 50 | 90 | 60 | 20 | 40 | 40 | 30 | 90 | 90 | 90 | 0 | 20 | Plant response rating, Wheat [4, 21]: 30; Plant response rating, Corn (corn (Zea mays); [21]): 60; Plant response rating, Ryegrass, Italian [5, 21]: 20; Plant response rating, Foxtail, Giant [6, 21]: 90; Plant response rating, Ragweed [7, 21]: 0; Plant response rating, Barnyardgrass [8, 21]: 90; Plant response rating, Blackgrass [9, 21]: 50; Plant response rating, Galium [10, 21]: 0; Plant response rating, Pigweed [11, 21]: 0; Plant response rating, Kochia (Kochia (Kochia scoparia) [12]; [21]): 0; Plant response rating, Barnyardgrass [16]: 90; Barnyardgrass plant response rating (0 to 100 scale, 0 is no effect, 100 is complete control) [16]: 90; Plant response rating, Pigweed [17]: 0; Pigweed plant response rating (0 to 100 scale, 0 is no effect, 100 is complete control) [17]: 20; Plant response rating, Kochia (Kochia (Kochia scoparia) [18]): 0; Kochia plant response rating (0 to 100 scale, 0 is no effect, 100 is complete control) (Kochia (Kochia scoparia) [18]): 50 |
| O=C1NCC(c2cc(C(F)(F)F)ccc2F)C1C(=O)Nc1ccc(F)cc1F (stereo not drawn) [Compound 595] | 80 | 20 | 50 | 70 | 50 | 60 | 40 | 90 | 0 | 90 | 40 | 20 | 30 | 30 | 20 | 40 | 90 | 90 | 0 | 30 | Plant response rating, Wheat [4, 21]: 30; Plant response rating, Corn (corn (Zea mays); [21]): 30; Plant response rating, Ryegrass, Italian [5, 21]: 20; Plant response rating, Foxtail, Giant [6, 21]: 90; Plant response rating, Ragweed [7, 21]: 0; Plant response rating, Barnyardgrass [8, 21]: 90; Plant response rating, Blackgrass [9, 21]: 20; Plant response rating, Galium [10, 21]: 0; Plant response rating, Pigweed [11, 21]: 20; Plant response rating, Kochia (Kochia (Kochia scoparia) [12]; [21]): 0; Plant response rating, Barnyardgrass [16]: 90; Barnyardgrass plant response rating (0 to 100 scale, 0 is no effect, 100 is complete control) [16]: 90; Plant response rating, Pigweed [17]: 30; Pigweed plant response rating (0 to 100 scale, 0 is no effect, 100 is complete control) [17]: 30; Plant response rating, Kochia (Kochia (Kochia scoparia) [18]): 40; Kochia plant response rating (0 to 100 scale, 0 is no effect, 100 is complete control) (Kochia (Kochia scoparia) [18]): 50 |
